Assays:
[1] = Measurement of relaxivity (r1, r2) in 3T MRI phantom; type: physicochemical; conditions: tertiary distilled water, 0.0625-1 mM, linear regression, in mM-1·s-1 (unit assumed)
Protocol: The relaxivity (r1, r2) of each of synthesized Gd-DO3A-Hba, and cyclic commercial contrast agents Gadovist® and Dotarem® as comparison groups material was measured. Specifically, a phantom was prepared by diluting the gadolinium complex in tertiary distilled water to five concentrations (0.0625, 0.125, 0.25, 0.5, 1 mM), and then T1 and T2 relaxation times were measured in 3T MRI. Thus, R (Relaxation rate=1/T) of each concentration was calculated and the relaxivity (r1, r2) result of the gadolinium complex was obtained through linear regression analysis (see FIG. 3) and shown in a following Table 1.

amyloid beta polymer = amyloid beta polymer (Homo sapiens, UniProt P05067); experiment: Amyloid beta polymer targeting ability, phantom experiment on 9.4T MR; type: binding; conditions: incubated with amyloid beta polymer 37° C. 24 hours, washed pellet, FIG. 6
Protocol: (1) 221.5 μL of HFIP was added to 1 mg of amyloid beta at a concentration of 1 mM, followed by shaking for 1 hour at room temperature using a shaker to remove preaggregation. (2) The amyloid beta from which the preaggregation was removed was dried, and 221.5 μL of DMSO was added thereto to achieve a 1 mM concentration. Using a mixer and sonicator, a suspension thereof was prepared, and 878.5 μL of PBS (1×, pH 7.4) was added thereto to achieve a 0.2 mM concentration. (3) After incubating the suspension at 37° C. for 4 days using a shaker, the polymerized amyloid beta polymer was dispensed by 200 μL. Then, 20 μL of a solution in which each of Gd-DO3A-Hba and the commercial contrast agent (Gadovist®) was dissolved in PBS at 2 mM concentration was added thereto. The incubation was carried out thereon at 37° C. for 24 hours using a shaker. (4) After 24 hours has elapsed, centrifugation was performed thereon to remove the supernatant therefrom. The amyloid beta polymer was washed using PBS. 200 μL of a solution of PBS:DMSO=9:1 was added to a pellet to prepare an MRI phantom sample. As a control, a phantom sample obtained by incubating only the amyloid beta polymer was used. […]

amyloid beta polymer, sequence (P05067 672-713 limits assumed): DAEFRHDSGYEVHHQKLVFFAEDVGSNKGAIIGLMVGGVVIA

Row | Compound | relaxivity r1 [1] | relaxivity r2 [1] | signal intensity / contrast enhancement compared to phantom of only amyloid beta polymer (amyloid beta polymer)
1 | O=C([O-])CN1CCN(CC(=O)[O-])CCN(CC(=O)[O-])CCN(CC(=O)[O-])CC1.[Gd+3] [Dotarem ®, Gd-DOTA] | 3.4 ± 0.1 | 3.9 ± 0.2 | –
2 | O=C([O-])CN1CCN(CC(=O)[O-])CCN([C@H](CO)[C@H](O)CO)CCN(CC(=O)[O-])CC1.[Gd+3] (racemic) [Gadovist ®] | 3.9 ± 0.1 | 4.9 ± 0.1 | little difference in contrast enhancement effect
